Laboratory results published in US20260198495A1, “BINARY INSECTICIDE COMPOSITION AND USE THEREOF” (SHENYANG SINOCHEM AGROCHEMICALS R & D CO., LTD., priority 2022, published 2026).
In brackets after ≈: the same amount, converted by molar mass.

Key:
Type in all cases: in vivo
[1] = test system: 2nd-instar nymphs of Frankliniella occidentalis Pergande; assay: Joint toxicity of I-72 + spinetoram, leaf spraying, Example 11, Table 11; conditions: Frankliniella occidentalis, kidney bean leaf spraying, 48 h, A = compound I-72, B = spinetoram, read-out: LC50
Source text: Test subject: 2nd-instar nymphs of Frankliniella occidentalis Pergande, a sensitive strain reared indoors.
Experimental method: the spraying method was adopted. The kidney bean leaves cultivated in the greenhouse were selected, and the petioles were wrapped with moist degreased cotton and sealing film. They were evenly sprayed with the pesticide solution in the order from low dosage to high dosage according to the experimental design, placed in a 6-cm-diameter Petri dish with filter paper. After natural air-drying in the shade, the test insects were introduced, with 20 insects for each treatment and 3 replicates. In addition, a blank control was set up. The number of dead and live insects was investigated 48 hours later. The corrected mortality rate was calculated using the Abbott's formula, and the DPS data processing software was used for statistical analysis to calculate the toxicities (LC50 values) of the single test pesticides and the mixtures under the test ratios.
The test conditions, the preparation of the pesticide solution and the evaluation method were the same as those in Example 1.

[2] = test system: adult Phyllotreta vittuta Fabr.; assay: Joint toxicity of I-72 + deltamethrin, Example 45, Table 45; conditions: A = compound I-72, B = deltamethrin; potted cabbage seedling spraying; 72 hours; read-out: LC50
Procedure: (§1) Test target: adult Phyllotreta vittuta Fabr.
(§2) Preparation of the pesticide solution: according to different test requirements, the test samples were accurately weighed respectively with an electronic analytical balance. The technical pesticides were dissolved in acetone, and then diluted with 0.1% Tween 80 water into a series of pesticide solutions with a certain concentration gradient according to the experimental design dosage.
(§3) Experimental method: first, uniform and consistent potted cabbage seedlings were selected. Then, uniform spraying was performed with the pesticide solution in the order from low dosage to high dosage according to the experimental design. After air-drying in the shade, adult flea beetles were transferred onto the treated cabbage seedlings, and then glass covers were put on them, with about 30-40 adult flea beetles on each seedling and 3 replicates for each treatment. In addition, a blank control was set up.
The treated test materials were placed in an observation room, and the temperature, humidity and illumination of the observation room could be adjusted as needed. The number of dead and live insects was investigated 72 hours later. […] Then, the co-toxicity coefficient of each ratio was calculated using the Sun Y-P method to evaluate the mixing effect (the same as in Example 1).

[3] = test system: 2nd-instar larvae of Plutella xylostella; assay: Synergism screening (Bliss) of I-72 + insect attractants and insecticides, Example 49, Table 49; conditions: Plutella xylostella; single pesticide, 0.1 mg/L; 72 hours; read-out: Measured mortality rate
Procedure: Test target: 2nd-instar larvae of Plutella xylostella.
as §2
(§4) Experimental method: first, cabbage leaves were selected and dipped in the prepared pesticide solution for 10 s in the order from low dosage to high dosage according to the experimental design. After natural air-drying in the shade, they were placed in a 9-cm-diameter Petri dish with filter paper, and uniform and healthy test insects were introduced, with 10 insects for each treatment and 3 replicates for each treatment. In addition, a blank control CK was set up.
(§5) The treated test materials were placed in an observation room, and the temperature, humidity and illumination of the observation room could be adjusted as needed. The number of dead and alive insects was investigated 72 hours later, and the corrected mortality rate was calculated using the Abbott's formula.
(§6) The synergism of the mixture was evaluated by adopting the Bliss method, as in Example 5.

[4] = test system: 3rd-instar larvae of Ostrinia furnacalis Guenee; assay: Synergism screening (Bliss) of I-72 + ecdysteroid and juvenile hormone insecticides, Example 51, Table 51; conditions: Ostrinia furnacalis; single pesticide, 2 mg/L; 72 hours; read-out: Measured mortality rate
Procedure: Test target: 3rd-instar larvae of Ostrinia furnacalis Guenee.
as §2
as §4, with “tender corn stems” for “cabbage leaves”, “(CK)” for “CK”
as §5, §6

[5] = test system: Myzus persicae (Sulzer) nymphs; assay: whole plant or invertebrate; conditions: A = compound I-72, B = clothianidin, cabbage leaf spraying, 48 hours, read-out: LC50
Procedure: Test target: Myzus persicae (Sulzer) nymphs, a sensitive strain reared indoors.
as §2
(§7) Experimental method: first, cabbage leaves with uniform and consistent Myzus persicae (Sulzer) were selected, with about 30-40 insects on each leaf. Then, they were evenly sprayed with the pesticide solution in the order from low dosage to high dosage according to the experimental design, with 1.5 mL of the solution for each leaf and 3 replicates for each treatment. In addition, a blank control was set up.
(§8) The treated test materials were placed in an observation room, and the temperature, humidity and illumination of the observation room could be adjusted as needed. The number of dead and live insects was investigated 48 hours later.

[6] = test system: adult Phyllotreta vittuta Fabr.; assay: Joint toxicity of I-72 + acetamiprid, Example 65, Table 65; conditions: A = compound I-72, B = acetamiprid; potted cabbage seedling spraying; 72 hours; read-out: LC50
Procedure: as §1, §2, §3
The treated test materials were placed in an observation room, and the temperature, humidity and illumination of the observation room could be adjusted as needed. The number of dead and live insects was investigated 72 hours later.

Aphis craccivora nymphs = assay: whole plant or invertebrate; conditions: A = compound I-72, B = sulfoxaflor, broad bean seedling spraying, 48 hours, read-out: LC50
Procedure: Test target: Aphis craccivora nymphs, a sensitive strain reared indoors.
as §2
as §7, with “broad bean seedlings” for “cabbage leaves”, “Aphis craccivora” for “Myzus persicae (Sulzer)”, “seedling.” for “leaf.”
as §8

Spodoptera exigua Hübner = assay: Field efficacy trial of I-72 and Spodoptera exigua Hübner nucleopolyhedrovirus, Example 87, Table 87; conditions: spraying
Procedure: This trial was arranged in the field trial shed area of the Wuhan Vegetable Research Institute. The spraying method was adopted for pesticide application. The investigation method was to take samples at 5 points, with 2 fixed plants at each point. A total of 10 plants were investigated in each plot, and the trial was repeated four times. The population base of pests was investigated before the pesticide application, and investigations were performed 3 days and 7 days after the pesticide application. The amount of water used per mu was 30L. The calculation method for the efficacy of the test pesticides is as follows:
Test pesticides: A: Spodoptera exigua Hübner nucleopolyhedrovirus suspension with 3 billion PIBs (produced by Henan Jiyuan Baiyun Industrial Co., Ltd.); and B: compound I-72 (dissolved in acetone, 0.1% Tween 80 was added, and a 10% stock solution was prepared for use).

SMILES: CN(C(=O)c1ccc2c(c1)OC(F)(F)O2)c1cccc(C(=O)Nc2c(Br)cc(C(F)(C(F)(F)F)C(F)(F)F)cc2OC(F)F)c1F [Compound I-72]
- LC50 [1]: 1.94 µg/mL
- LC50 [2]: 1.24 µg/mL
- mortality at 0.1 µg/mL [3]: 46.9%
- mortality at 2 µg/mL [4]: 75.9%
- LC50 [5]: 8.05 µg/mL (≈ 10.9 µM)
- LC50 [6]: 1.14 µg/mL
- LC50 (Aphis craccivora nymphs): 2.52 µg/mL (≈ 3.41 µM)
- Control efficacy 3 days after pesticide application (Spodoptera exigua Hübner; dose 6 ml per mu): 59.8%
- Control efficacy 7 days after pesticide application (Spodoptera exigua Hübner; dose 6 ml per mu): 71.5%
- Control efficacy 3 days after pesticide application (Spodoptera exigua Hübner; dose 9 ml per mu): 66.5%
- Control efficacy 7 days after pesticide application (Spodoptera exigua Hübner; dose 9 ml per mu): 75.2%
- Control efficacy 3 days after pesticide application (Spodoptera exigua Hübner; dose 12 ml per mu): 72.8%
- Control efficacy 7 days after pesticide application (Spodoptera exigua Hübner; dose 12 ml per mu): 82.4%
